Reference: article PMC8288134, “Synthesis, potential antitumor activity, cell cycle analysis, and multitarget mechanisms of novel hydrazones incorporating a 4-methylsulfonylbenzene scaffold: a molecular docking study” (Journal of Enzyme Inhibition and Medicinal Chemistry, 2021)
Like-named read-outs stand apart in the source and are kept apart here.

How the values were obtained:
[1] = tested on: HL-60(TB); assay: cells; type: cell-based, human; conditions: Homo sapiens, HL-60, HL-60(TB); one dose 10 µM; read-out: Growth inhibition percentage (GI%)
[2] = tested on: CCRF-CEM; assay: NCI antitumor screen (SRB); type: cell-based; conditions: Homo sapiens, one dose 10 µM, read-out: Growth inhibition percentage (GI%)
[3] = tested on: A549/ATCC; assay: NCI antitumor screen (SRB); type: cell-based; conditions: Homo sapiens, one dose 10 µM, read-out: Growth inhibition percentage (GI%)
[4] = tested on: K-562; assay: NCI antitumor screen (SRB); type: cell-based; conditions: Homo sapiens, K562, read-out: Growth inhibition percentage (GI%)
[5] = tested on: full panel of 59 cancer cell lines; assay: NCI antitumor screen, full panel; conditions: one dose 10 µM
[6] = tested on: NCI-H522; assay: NCI antitumor screen (SRB); type: cell-based; conditions: Homo sapiens
[7] = tested on: MOLT-4; assay: NCI antitumor screen (SRB); type: cell-based; conditions: Homo sapiens, one dose 10 µM, read-out: Growth inhibition percentage (GI%)
[8] = tested on: UACC-257; assay: NCI antitumor screen (SRB); type: cell-based, human; conditions: Homo sapiens, one dose 10 µM, read-out: Growth inhibition percentage (GI%)
[9] = tested on: SR; assay: NCI antitumor screen (SRB); type: cell-based; conditions: Homo sapiens, one dose 10 µM, read-out: Growth inhibition percentage (GI%)
[10] = tested on: HCT-116; assay: NCI antitumor screen (SRB); type: cell-based; conditions: Homo sapiens, read-out: Growth inhibition percentage (GI%)
[11] = tested on: HOP-62; assay: NCI antitumor screen (SRB); type: cell-based; conditions: Homo sapiens, HOP-62, read-out: Growth inhibition percentage (GI%)
[12] = tested on: HT29; assay: NCI antitumor screen (SRB); type: cell-based; conditions: Homo sapiens, HT-29, one dose 10 µM, read-out: Growth inhibition percentage (GI%)
[13] = tested on: UO-31; assay: NCI antitumor screen (SRB); type: cell-based, human; conditions: Homo sapiens, one dose 10 µM, read-out: Growth inhibition percentage (GI%)
[14] = tested on: SK-OV-3; assay: NCI antitumor screen (SRB); type: cell-based; conditions: Homo sapiens, one dose 10 µM, read-out: Growth inhibition percentage (GI%)
[15] = tested on: SNB-75; assay: NCI antitumor screen (SRB); type: cell-based; conditions: Homo sapiens, one dose 10 µM, read-out: Growth inhibition percentage (GI%)
[16] = tested on: T-47D; assay: NCI antitumor screen (SRB); type: cell-based; conditions: Homo sapiens, T47D, one dose 10 µM, read-out: Growth inhibition percentage (GI%)
[17] = tested on: SK-MEL-2; assay: NCI antitumor screen (SRB); type: cell-based; conditions: Homo sapiens
[18] = tested on: U251; assay: NCI antitumor screen (SRB); type: cell-based; conditions: Homo sapiens, U-251, one dose 10 µM, read-out: Growth inhibition percentage (GI%)
[19] = tested on: OVCAR-8; assay: NCI antitumor screen (SRB); type: cell-based; conditions: Homo sapiens, one dose 10 µM, read-out: Growth inhibition percentage (GI%)
[20] = tested on: CAKI-1; assay: NCI antitumor screen (SRB); type: cell-based; conditions: Homo sapiens, one dose 10 µM, read-out: Growth inhibition percentage (GI%)
[21] = tested on: PC-3; assay: NCI antitumor screen (SRB); type: cell-based; conditions: Homo sapiens, one dose 10 µM, read-out: Growth inhibition percentage (GI%)
[22] = tested on: NCI-H226; assay: NCI antitumor screen (SRB); type: cell-based; conditions: Homo sapiens, one dose 10 µM, read-out: Growth inhibition percentage (GI%)
[23] = tested on: COLO 205; assay: NCI antitumor screen (SRB); type: cell-based; conditions: Homo sapiens, one dose 10 µM, read-out: Growth inhibition percentage (GI%)
[24] = tested on: A498; assay: NCI antitumor screen (SRB); type: cell-based; conditions: Homo sapiens, one dose 10 µM, read-out: Growth inhibition percentage (GI%)
[25] = NCI-H522, read-out: Growth inhibition percentage (GI%)
[26] = SK-MEL-2, read-out: Growth inhibition percentage (GI%)

Structure (SMILES) | inhibition at 10 µM [1] [%] | inhibition at 10 µM [2] [%] | inhibition at 10 µM [3] [%] | inhibition at 10 µM [4] [%] | PCE: positive cytotoxic effect (number of cell lines with GI 10 to 100% / total number of cell lines) [5] | inhibition at 10 µM [6, 25] [%] | inhibition at 10 µM [7] [%] | inhibition at 10 µM ([8]; UACC-257) [%] | inhibition at 10 µM [11] [%] | inhibition at 10 µM [12] [%] | inhibition at 10 µM ([13]; UO-31) [%] | inhibition at 10 µM [17, 26] [%] | inhibition at 10 µM [21] [%] | further results
CS(=O)(=O)c1ccc(C(=O)NN=Cc2ccc(F)cc2)cc1 [Compound 8, N'-(4-Fluorobenzylidene)-4-(methylsulfonyl)benzohydrazide] | 23.1 | 11.8 | 11.1 | 13.6 | 9/59 | 15.9 | 23.9 | 18.4 | – | – | – | – | – | inhibition at 10 µM [9]: 20.2%; inhibition at 10 µM [10]: 10.8%
CN(C)c1ccc(C=NNC(=O)c2ccc(S(C)(=O)=O)cc2)cc1 [Compound 12, N'-(4-(Dimethylamino)benzylidene)-4-(methylsulfonyl)benzohydrazide] | 38 | – | 28.4 | 17.2 | 9/59 | 40.4 | 29.8 | 39.2 | 11.4 | 20.5 | 11.2 | – | – | –
CS(=O)(=O)c1ccc(C(=O)NN=Cc2ccccc2Cl)cc1 [Compound 13, N'-(2-Chlorobenzylidene)-4-(methylsulfonyl)benzohydrazide] | 47.7 | – | 21.6 | 32.5 | 10/59 | – | 32.3 | 35.5 | 12.7 | – | 15.7 | – | – | inhibition at 10 µM [14]: 11.7%; inhibition at 10 µM [15]: 15.1%; inhibition at 10 µM [16]: 12.5%
COc1cc(/C=N/NC(=O)c2ccc(S(C)(=O)=O)cc2)ccc1O [Compound 19] | 67.3 | – | 29.3 | 27.2 | 13/59 | 37.7 | 30.9 | 48.4 | 12.1 | 17.5 | 12.8 | 13.9 | – | inhibition at 10 µM [18]: 13%; inhibition at 10 µM [19]: 19.6%; inhibition at 10 µM [9]: 18.5%
CS(=O)(=O)c1ccc(C(=O)NN=Cc2ccccc2F)cc1 [Compound 14, N'-(2-Fluorobenzylidene)-4-(methylsulfonyl)benzohydrazide] | 36 | – | 29.3 | 25.7 | 12/59 | 26 | 26.4 | 42.4 | 15.8 | 18.6 | – | – | – | inhibition at 10 µM [19]: 14.5%; inhibition at 10 µM [20]: 11.7%; inhibition at 10 µM [16]: 11.8%; inhibition at 10 µM [9]: 49.2%
CS(=O)(=O)c1ccc(C(=O)N/N=C/c2ccc(O)cc2)cc1 [Compound 11] | 50.5 | – | – | 26.2 | 5/59 | 11.7 | 32.5 | – | – | – | – | – | 10.9 | –
CS(=O)(=O)c1ccc(C(=O)NN=Cc2ccccc2)cc1 [Compound 4, N'-Benzylidene-4-(methylsulfonyl)benzohydrazide] | 60.3 | – | 28.5 | 11.3 | 10/59 | 42.1 | 25.5 | 44.2 | 12 | – | – | 21.5 | – | inhibition at 10 µM [18]: 20.4%; inhibition at 10 µM [19]: 15.1%
COc1ccccc1C=NNC(=O)c1ccc(S(C)(=O)=O)cc1 [Compound 15, N'-(2-Methoxybenzylidene)-4-(methylsulfonyl)benzohydrazide] | 36.5 | 16.1 | 11.9 | 23.4 | 14/59 | – | 11.6 | 10.1 | 18.9 | – | 14.4 | – | 19.1 | inhibition at 10 µM [14]: 17.1%; inhibition at 10 µM [22]: 10.3%; inhibition at 10 µM [16]: 18.2%; inhibition at 10 µM [9]: 15.6%; inhibition at 10 µM [10]: 10.7%
COc1cc(C=NNC(=O)c2ccc(S(C)(=O)=O)cc2)cc(OC)c1OC [Compound 23, 4-(Methylsulfonyl)-N'-(3,4,5-trimethoxybenzylidene)benzohydrazide] | 44.2 | – | 22.8 | 37.6 | 9/59 | – | 32.6 | 28.6 | – | – | 10.2 | – | – | inhibition at 10 µM [14]: 14.2%; inhibition at 10 µM [23]: 14.6%; inhibition at 10 µM [15]: 11.3%
COc1ccc(C=NNC(=O)c2ccc(S(C)(=O)=O)cc2)cc1OC [Compound 21, N'-(3,4-Dimethoxybenzylidene)-4-(methylsulfonyl)benzohydrazide] | 45.9 | – | – | 19.1 | 8/59 | 15.7 | 34.1 | – | – | – | – | – | 11.5 | inhibition at 10 µM [20]: 11%; inhibition at 10 µM [15]: 14.2%; inhibition at 10 µM [10]: 11%
COc1ccc(C=NNC(=O)c2ccc(S(C)(=O)=O)cc2)cc1 [Compound 10, N'-(4-Methoxybenzylidene)-4-(methylsulfonyl)benzohydrazide] | 42.9 | 10.6 | 29.8 | – | 11/59 | 20.8 | 21.1 | 29 | – | 10.8 | – | 11.8 | 13.8 | inhibition at 10 µM [22]: 13.4%; inhibition at 10 µM [19]: 11.3%
CS(=O)(=O)c1ccc(C(=O)NN=Cc2ccc(Cl)cc2)cc1 [Compound 7, N'-(4-Chlorobenzylidene)-4-(methylsulfonyl)benzohydrazide] | 52.1 | – | – | 14 | 7/59 | 15.7 | 29.4 | – | – | – | – | 12.8 | 22.8 | inhibition at 10 µM [24]: 12.3%
COc1cc(OC)c(OC)cc1/C=N/NC(=O)c1ccc(S(C)(=O)=O)cc1 [Compound 24] | – | – | 17.1 | – | 8/59 | – | 21.4 | – | – | 17.9 | – | – | 18.6 | inhibition at 10 µM ([17]; SK-MEL-2, one dose 10 µM, read-out: Growth inhibition percentage (GI%)): 11.7%; inhibition at 10 µM ([13]; UO-31, UO-31): 10.5%; inhibition at 10 µM ([6]; NCI-H522, one dose 10 µM, read-out: Growth inhibition percentage (GI%)): 39.8%; inhibition at 10 µM ([8]; UACC-257, UACC-257): 21.6%
CS(=O)(=O)c1ccc(C(=O)NN=Cc2ccc3c(c2)OCO3)cc1 [Compound 22, N'-(Benzo[d][1,3]dioxol-5-ylmethylene)-4-(methylsulfonyl)benzohydrazide] | 43 | 13 | 32.3 | 14.5 | 9/59 | 14 | 29.9 | 40.9 | – | 11 | – | 10.9 | – | –
CS(=O)(=O)c1ccc(C(=O)NN=Cc2cccnc2)cc1 [Compound 5, 4-(Methylsulfonyl)-N'-(pyridin-3-ylmethylene)benzohydrazide] | 20.5 | 11.1 | 10.6 | 18.8 | 13/59 | 15.1 | – | – | 16.5 | 13.3 | 16.3 | – | 17.9 | inhibition at 10 µM [24]: 11.2%; inhibition at 10 µM [14]: 16.9%; inhibition at 10 µM [22]: 11.9%; inhibition at 10 µM [16]: 13.7%
